Entries after “also recorded” stand apart in the source; their conditions may differ. Like-named read-outs stand apart in the source and are kept apart here. Marks after values point to notes of the source that are not given here.
Tests used:
[1] = test system: male Hessian fly antennae; test: GC-EAD recordings of male antennal responses; design: species or system Mayetiola destructor; settings: for antennal responses in males to synthetic compounds: GC-EAD, whole males mounted; for antennal responses to compounds in female gland extract: GC-EAD of female Hessian fly extract (20 female equivalents)
Description: Coupled gas chromatographic-electroantennographic detection (GC-EAD, Arn et al 1975) was used to analyse female gland extracts. GC-EAD is an efficient tool to determine which compounds in an extract that the male antennae can perceive, by use of the highly specific olfactory receptor neurons. In a CC-EAD set-up (FIG. 3), the effluent of the GC column is split between the flame ionisation detector (FID) of the CC and the antennal detector (EAD). The GC separates the compounds in the extract over time and the compounds are detected by the FID. Simultaneously, the eluting compounds also pass the male antennae via a constant charcoal-filtered and humidified air stream. The male antennae are connected to two electrodes and, if the antennae perceive a compound, neural signals are generated and these signals are recorded as an electroantennogram (EAG). Since the olfactory receptors on the antennae are highly specific, they will more or less exclusively respond to the pheromone compounds in the extract. In addition to pheromone extracts, GC-EAD can be used to analyse all sorts of compound blends, e.g. host volatile collections and synthetic pheromone compounds. Irrespective of what kind of substances that are analysed, simultaneous recordings from the FID and the EAD give information on which compounds in the blend that are interesting for chemical identification and/or behavioural testing.
In addition to gland extracts, GC-EAD was used to analyse seven synthetic compounds (Table 2).
A Hewlett-Packard 6890 GC (Palo Alto, Calif., USA) with flame ionization detection and an Innowax column (30 m×0.25 mm ID, H-P) was used for the GC-EAD recordings. The column was programmed from 80° C./2 min to 220° C. at 10° C./min. Since male Hessian fly antennae are very sensitive to desiccation whole male bodies instead of excised antennae were mounted in an antenna holder (JoAC, Lund, Sweden) (FIG. 4). The antennal holder is made of Plexiglas with two wells connected to an amplifier by gold wire electrodes and males were mounted in the antennal holder as described by Hillbur et al (2001). The antennae were exposed to a charcoal-filtered and humidified air stream at a rate of ca 0.3 m/s through a glass tube (8 mm diameter). The signals from the antennae were amplified (JoAC) before they were recorded and analysed with ElectroAntennoGraphy software (Syntech, Hilversum, The Netherlands).

male Hessian flies [2] = settings: wind tunnel, Harris and Foster (1991); cited from earlier work
[3] = test system: male Hessian flies (antennal responses); settings: Hillbur et al unpublished, cited from earlier work; for elicit antennal responses in male Hessian flies: GC-EAD; for known to elicit antennal responses (mark in Table 2): earlier GC-EAD
male Hessian flies [4] = test: Y-tube olfactometer two-choice bioassays; type: in vivo, Mayetiola destructor
Description: The attractiveness of different synthetic pheromone blends and female gland extracts were studied in a mobile glass Y-tube olfactometer, (FIG. 5a). The arms of the Y-tube were 14 cm long, the stem 12.5 cm and the inner diameter was 2.2 cm. Charcoal-filtered and humidified air was pumped (Micro pump NMP 30 KNDC, 12 V, KNF Neuberger, Germany) through Teflon tubes and entered each arm via a custom made 9.5 cm long glass tube, (Humi Glas, Södra Sandby, Sweden) (FIG. 5b). […] In the centre of the glass tube was a glass rod (ca 1 cm long; 0.5 cm diameter) containing a centred small hole. During experiments, the stimulus was applied on a small piece of filter paper (1.5×0.5 cm) attached to a ca 1.5 cm long steel wire. The steel wire was placed in the hole of the glass rod to position the stimulus in the centre of the tube. […]
Six different two-choice bioassays were performed to evaluate differences in attractiveness of the main pheromone component (abbreviated: 1), 2S-E10-13:OAc, a three-component blend (abbreviated: 3) consisting of 2S-E10-13:OAc, 2S-E10-13:OH and 2S-13:OAc, and two different four-component blends, both consisting of the compounds included in the three-component blend but with either 2S-E8-E10-13:OAc (abbreviated: 4E) or 2S-Z8-E10-13:OAc (abbreviated: 4Z) added. […] Data from the […] bioassays were analysed by chi-square tests.

male Hessian flies [5] = settings: field study, main compound alone, cited from earlier work

## CC/C=C/C=C/CCCCC[C@H](C)OC(C)=O [2S-E8-E10-13:OAc, (2S,8E,10E)-8,10-tridecadien-2-yl acetate]
[1]
  antennal responses in males to synthetic compounds: elicited antennal responses; also recorded: males respond; also recorded: responded

## CC/C=C\CCCCCCC[C@H](C)OC(C)=O [2S-Z10-13:OAc]
[1]
  antennal responses to compounds in female gland extract: antennal responses
  antennal responses in males to synthetic compounds: a response was recorded
[1]; listed as 23-Z10-13:OAc
  antennal responses to compounds in female gland extract: respond

## CC/C=C/CCCCCCC[C@H](C)OC(C)=O [2S-E10-13:OAc, (2S,10E)-10-tridecen-2-yl acetate]
[1]
  antennal responses to compounds in female gland extract: antennal responses
  antennal responses in males to synthetic compounds: elicited antennal responses; also recorded: responded
Male Hessian flies [2]
  males that contacted the odour source: 56%
[3]
  elicit antennal responses in male Hessian flies: elicit antennal responses
  known to elicit antennal responses (mark in Table 2): (2S-E10-13:OAc) *
Male Hessian flies [4]; Y-tube, main component alone versus blank
  responding males attracted when compared to blank: over 90%
Male Hessian flies [4]; blank-1 bioassay, 10 ng, p<0.001
  attractiveness to males versus blank: significantly more attracted
Male Hessian flies [5]
  catch of male Hessian flies in the field: did not catch any male Hessian flies
Male Hessian flies [5]; listed as main component
  catch of male Hessian flies in the field: did not catch any males

## CCCCCCCCCCC[C@H](C)OC(C)=O [2S-13:OAc, (2S)-tridecan-2-yl acetate]
[1]
  antennal responses to compounds in female gland extract: antennal responses
  antennal responses in males to synthetic compounds: elicited antennal responses; also recorded: responded
[3]
  elicit antennal responses in male Hessian flies: elicit antennal responses
  known to elicit antennal responses (mark in Table 2): (2S-13:OAc) *

## CC/C=C/CCCCCCCCC[C@H](C)OC(C)=O [2S-E12-15:OAc, (2S,12E)-12-pentadecen-2-yl acetate]
[1]
  antennal responses in males to synthetic compounds: did not elicit antennal responses; also recorded: No responses were recorded

## CC/C=C/C=C\CCCCC[C@H](C)OC(C)=O [2S-Z8-E10-13:OAc, (2S,8Z,10E)-8,10-tridecadien-2-yl acetate]
[1]
  antennal responses in males to synthetic compounds: elicited antennal responses; also recorded: males respond; also recorded: responded

## CC/C=C/CCCCCCC[C@H](C)O [2S-E10-13:OH, (2S,10E)-10-tridecen-2-ol]
[1]
  antennal responses to compounds in female gland extract: antennal responses
  antennal responses in males to synthetic compounds: responded
[1]; listed as 2S-E0-13:OH
  antennal responses in males to synthetic compounds: elicited antennal responses
[3]
  elicit antennal responses in male Hessian flies: elicit antennal responses
  known to elicit antennal responses (mark in Table 2): (2S-E10-13:OH) *

## CCCC/C=C/CCCCCCC[C@H](C)OC(C)=O [2S-E10-15:OAc, (2S,10E)-10-pentadecen-2-yl acetate]
[1]
  antennal responses in males to synthetic compounds: did not elicit antennal responses; also recorded: No responses were recorded
